According to patent US8841456B2, “1,5-naphthyridine derivative or salt thereof” (FUJIFILM Corporation, priority 2011, dated 2014):
Like-named read-outs stand apart in the source and are kept apart here.

What was measured:
human PI3Kα protein = molecular target: T1, human PI3Kα protein (Homo sapiens, UniProt P42336); test: PI3Kα enzyme assay (ADP-Glo kinase assay); type: biochemical; details: 3 nM PI3Kα, 50 μM PIP2, 100 μM ATP
T1 construct: purchased Carna Biosciences, Inc; host or cells: Baculovirus expression system
T1 sequence (P42336 whole entry): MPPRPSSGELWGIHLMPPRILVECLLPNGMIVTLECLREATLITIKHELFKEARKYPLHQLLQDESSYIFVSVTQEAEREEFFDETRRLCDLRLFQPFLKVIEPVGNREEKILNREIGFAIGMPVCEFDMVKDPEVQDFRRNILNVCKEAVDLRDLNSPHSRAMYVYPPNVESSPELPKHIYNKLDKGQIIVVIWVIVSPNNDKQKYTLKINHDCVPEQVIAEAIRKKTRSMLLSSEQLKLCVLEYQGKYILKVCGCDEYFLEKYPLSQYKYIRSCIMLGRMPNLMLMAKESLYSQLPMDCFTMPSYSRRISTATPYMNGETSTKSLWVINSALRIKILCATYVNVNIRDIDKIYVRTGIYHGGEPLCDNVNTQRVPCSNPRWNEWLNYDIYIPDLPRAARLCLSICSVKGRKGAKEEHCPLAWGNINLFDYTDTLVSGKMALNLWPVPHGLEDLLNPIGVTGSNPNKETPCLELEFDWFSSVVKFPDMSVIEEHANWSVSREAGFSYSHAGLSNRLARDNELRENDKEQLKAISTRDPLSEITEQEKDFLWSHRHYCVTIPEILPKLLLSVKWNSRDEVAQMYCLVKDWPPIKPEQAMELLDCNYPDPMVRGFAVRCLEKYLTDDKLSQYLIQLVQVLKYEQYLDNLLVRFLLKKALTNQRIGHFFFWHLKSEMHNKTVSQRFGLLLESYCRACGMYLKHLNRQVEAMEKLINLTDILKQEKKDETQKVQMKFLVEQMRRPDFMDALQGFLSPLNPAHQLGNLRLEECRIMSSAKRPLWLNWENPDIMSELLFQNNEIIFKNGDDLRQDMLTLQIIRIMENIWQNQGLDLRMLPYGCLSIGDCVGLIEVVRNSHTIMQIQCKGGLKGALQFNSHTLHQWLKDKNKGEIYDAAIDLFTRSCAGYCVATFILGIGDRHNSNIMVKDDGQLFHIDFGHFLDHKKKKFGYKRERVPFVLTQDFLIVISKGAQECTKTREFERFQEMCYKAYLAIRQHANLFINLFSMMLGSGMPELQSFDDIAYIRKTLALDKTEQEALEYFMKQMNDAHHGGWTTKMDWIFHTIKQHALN
T1 sequence (P27986 whole entry partner): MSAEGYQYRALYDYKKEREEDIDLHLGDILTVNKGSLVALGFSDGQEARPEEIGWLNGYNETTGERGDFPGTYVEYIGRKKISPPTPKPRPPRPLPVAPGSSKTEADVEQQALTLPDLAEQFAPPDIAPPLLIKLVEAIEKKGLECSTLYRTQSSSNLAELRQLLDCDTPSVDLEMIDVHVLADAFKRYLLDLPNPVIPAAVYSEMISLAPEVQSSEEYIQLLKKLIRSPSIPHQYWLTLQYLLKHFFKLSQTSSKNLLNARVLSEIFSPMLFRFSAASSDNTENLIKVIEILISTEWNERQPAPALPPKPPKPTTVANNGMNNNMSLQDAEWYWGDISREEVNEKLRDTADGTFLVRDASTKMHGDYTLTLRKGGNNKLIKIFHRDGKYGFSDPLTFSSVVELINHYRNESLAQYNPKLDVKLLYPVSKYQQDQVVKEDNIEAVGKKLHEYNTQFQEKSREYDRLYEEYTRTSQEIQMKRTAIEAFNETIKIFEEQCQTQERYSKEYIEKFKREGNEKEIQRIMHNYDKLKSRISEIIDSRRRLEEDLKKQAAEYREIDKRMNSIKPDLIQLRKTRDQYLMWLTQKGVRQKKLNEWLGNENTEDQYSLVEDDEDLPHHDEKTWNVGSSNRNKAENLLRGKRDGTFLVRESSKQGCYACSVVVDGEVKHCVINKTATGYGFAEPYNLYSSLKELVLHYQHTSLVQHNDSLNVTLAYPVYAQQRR
Description: Evaluation of the PI3Kα inhibitory activity of the compound of the present invention was carried out according to the method as described below.
For the PI3Kα enzyme assay, biotinylated product of a human PI3Kα protein produced using a Baculovirus expression system (Carna Biosciences, Inc.) was used. Further, for the detection of the enzyme activity, an ADP-Glo kinase assay (PROMEGA Corporation) was used.
10 μL of a reaction solution (3 nM PI3Kα, 40 mM Tris-HCl, 20 mM MgCl2, 0.1% BSA, pH 7.5) including the human PI3Kα protein and a test compound at a predetermined concentration was incubated at room temperature for 15 minutes. Thereafter, 5 μL of a mixed solution of L-α-Phosphatidylinositol 4,5-diphosphate (PIP2) (SIGMA-ALDLICH) which was a substrate and ATP(SIGMA-ALDLICH) was added thereto to a final concentration of 50 μM and 100 μM, respectively, and the reaction solution was further incubated at 25° C. for 60 minutes to carry out an enzyme reaction.
After the reaction, 15 μL of an ADP-Glo reagent (PROMEGA Corporation) was added and the resulting liquid was incubated at room temperature for 60 minutes, whereby the enzyme reaction was stopped. Thereafter, after further adding 30 μL of a Kinase Detection Reagent (PROMEGA Corporation) and standing the resulting solution at room temperature for 40 minutes, ADP produced by the enzyme reaction was quantified by luminescence intensity.
For the measurement of luminescence intensity, EnVision (PerkinElmer, Inc.) was used.
(§1) The inhibitory activity of the compounds was evaluated using an IC50 (50% inhibitory concentration). The IC50 was calculated using XLfit (IDBS).

[1] = molecular target: T2, glutathione S-transferase (GST)-fusion human ERK2 protein (Homo sapiens, UniProt P28482); test: ERK2 enzyme assay (LabChip mobility shift); type: biochemical; details: 2 nM ERK2, 4.25 μM FL-Peptide 8, 43 μM ATP
T2 construct: purchased Carna Biosciences, Inc; host or cells: E. coli expression system
T2 sequence (P28482 whole entry, the tested form may be a part): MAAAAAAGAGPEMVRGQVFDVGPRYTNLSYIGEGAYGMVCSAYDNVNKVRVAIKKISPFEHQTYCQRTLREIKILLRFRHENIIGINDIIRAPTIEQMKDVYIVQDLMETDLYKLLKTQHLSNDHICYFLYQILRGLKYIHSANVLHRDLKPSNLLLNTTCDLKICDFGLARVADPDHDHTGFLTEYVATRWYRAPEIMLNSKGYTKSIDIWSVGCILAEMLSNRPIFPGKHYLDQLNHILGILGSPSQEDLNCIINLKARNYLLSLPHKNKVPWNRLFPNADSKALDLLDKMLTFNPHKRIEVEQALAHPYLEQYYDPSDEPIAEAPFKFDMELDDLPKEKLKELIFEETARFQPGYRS
Description: Evaluation of the ERK2 inhibitory activity of the compound of the present invention was carried out according to the method as described below.
For the ERK2 enzyme assay, a glutathione S-transferase (GST)-fusion human ERK2 protein (Carna Biosciences, Inc.) produced using an E. coli expression system was used.
12 μL of the reaction solution (2 nM ERK2, 100 mM Hepes, 10 mM MgCl2, 1.5 mM DTT, 0.003% Brij35, pH 7.5) including the ERK2 protein and a test compound at a predetermined concentration was incubatedat room temperature for 15 minutes. Thereafter, 3 μL of a mixed solution of FL-Peptide 8 (5-FAM-IPTSPITTTYFFFKKK-COOH) (Caliper Lifescience) which was a substrate and ATP(SIGMA-ALDLICH) were added thereto to a final concentration of 4.25 μM and 43 μM, respectively. The reaction solution was further incubated at 25° C. for 120 minutes to carry out an enzyme reaction.
The enzyme reaction was stopped by adding 27 μL of a reaction-stopping solution (100 mM HEPES, 11.2 mM EDTA, 5.6% Brij35, pH 7.5) including a 0.5% Coating reagent 8 (PerkinElmer, Inc.) after the reaction. Thereafter, non-phosphorylated peptides and phosphorylated peptides were separated using LabChip Ez Reader (Caliper LifeScience, Inc.) to quantify the proportion of phosphorylated peptides.
as §1

[2] = IC50 class, read-out: PI3Kα Inhibitory Activity
[3] = IC50 class, read-out: ERK2 Inhibitory Activity

| IC50 (human PI3Kα protein; [2]) | IC50 [1, 3] | IC50 (human PI3Kα protein; read-out: PI3Kα, IC50) | IC50 ([1]; read-out: ERK2, IC50) | Structure (SMILES) |
| --- | --- | --- | --- | --- |
| < 0.1 µM | < 0.1 µM |  |  | CN(C)CCCn1cc(-c2cnc3ccc(NC(=S)NC4CCCC4)nc3c2)cn1 [Compound 0221] |
| < 0.1 µM | < 0.1 µM |  |  | Cn1cc(-c2cnc3ccc(NC(=O)NC4CCCC4)nc3c2)cn1 [Compound 0003] |
| 0.1 to 1 µM | < 0.1 µM |  |  | C=CCNC(=O)Nc1ccc2ncc(-c3cn[nH]c3)cc2n1 [Compound 0056] |
| > 10 µM | 1 to 10 µM |  |  | CCN(CC)CCNC(=O)Nc1ccc2ncc(-c3cn[nH]c3)cc2n1 [Compound 0109] |
| < 0.1 µM | < 0.1 µM |  |  | S=C(Nc1ccc2ncc(-c3cnn(CCN4CCOCC4)c3)cc2n1)NC1CCCC1 [Compound 0138] |
| < 0.1 µM |  | < 0.003 µM | 1.22 µM | COc1cc(Nc2cnc3ccc(NC(=O)NC4CCCC4)nc3c2)cc(OC)c1OC [Compound 0009] |
| 0.1 to 1 µM | 0.1 to 1 µM |  |  | O=C(Nc1ccc2ncc(-c3ccc4c(c3)OCO4)cc2n1)NC1CCCC1 [Compound 0120] |
| < 0.1 µM | < 0.1 µM |  |  | CC(CCc1ccccc1)NC(=O)Nc1ccc2ncc(-c3cnn(CCCN4CCOCC4)c3)cc2n1 (stereo not shown) [Compound 0179] |
| < 0.1 µM | < 0.1 µM |  |  | O=C(Nc1ccc2ncc(-c3c[nH]nc3C(F)(F)F)cc2n1)NC1CCCC1 [Compound 0124] |
| 1 to 10 µM | 0.1 to 1 µM |  |  | CC(C)(C)NC(=O)Nc1ccc2ncc(-c3cnn(CCCN4CCOCC4)c3)cc2n1 [Compound 0185] |
| 1 to 10 µM | 0.1 to 1 µM |  |  | O=C(NCCCN1CCCCC1)Nc1ccc2ncc(-c3cn[nH]c3)cc2n1 [Compound 0202] |
| < 0.1 µM | 0.1 to 1 µM |  |  | O=C(Nc1ccc2ncc(-c3cnn(CCN4CCC4)c3)cc2n1)NC1CCCC1 [Compound 0024] |
| < 0.1 µM | 0.1 to 1 µM |  |  | CCCN1CCC(n2cc(-c3cnc4ccc(NC(=O)NC5CCCC5)nc4c3)cn2)CC1 [Compound 0229] |
| < 0.1 µM | < 0.1 µM |  |  | O=C(NCC1C[C@@H]2CC[C@H]1C2)Nc1ccc2ncc(-c3cn[nH]c3)cc2n1 (stereo partly shown) [Compound 0110] |
| 0.1 to 1 µM | < 0.1 µM |  |  | CC(C)OCCNC(=O)Nc1ccc2ncc(-c3cn[nH]c3)cc2n1 [Compound 0099] |
| 0.1 to 1 µM | < 0.1 µM |  |  | O=C(NCCCOc1ccccc1)Nc1ccc2ncc(-c3cn[nH]c3)cc2n1 [Compound 0104] |
| 0.1 to 1 µM | < 0.1 µM |  |  | CN(C)CCn1cc(-c2cnc3ccc(NC(=S)N[C@@H]4C[C@H]5CC[C@@H]4C5)nc3c2)cn1 [Compound 0213] |
| < 0.1 µM | < 0.1 µM |  |  | CC1(NC(=O)Nc2ccc3ncc(N4CCOCC4)cc3n2)CCCC1 [Compound 0253] |
| > 10 µM | > 10 µM |  |  | O=C(Nc1ccc2ncc(C(=O)N3CCOCC3)cc2n1)NC1CCCC1 [Compound 0141] |
| 0.1 to 1 µM | 1 to 10 µM |  |  | COC(=O)C#Cc1cnc2ccc(NC(=O)NC3CCCC3)nc2c1 [Compound 0127] |
| 0.1 to 1 µM | 0.1 to 1 µM |  |  | O=C(NCCCCC1CCCCC1)Nc1ccc2ncc(-c3cnn(CCCN4CCOCC4)c3)cc2n1 [Compound 0178] |
| < 0.1 µM | 0.1 to 1 µM |  |  | C[C@@H]1CN(c2cnc3ccc(NC(=O)NC4CCCC4)nc3c2)C[C@H](C)O1 [Compound 0085] |
| 0.1 to 1 µM | < 0.1 µM |  |  | O=C(NCc1ccccc1)Nc1ccc2ncc(-c3cn[nH]c3)cc2n1 [Compound 0060] |
| 0.1 to 1 µM | 1 to 10 µM |  |  | O=C(Nc1ccc2ncc(-c3cnc4[nH]ccc4c3)cc2n1)NC1CCCC1 [Compound 0123] |
| < 0.1 µM | 0.1 to 1 µM |  |  | O=C(Nc1ccc2ncc(N3CC(OCCCN4CCOCC4)C3)cc2n1)NC1CCCC1 [Compound 0240] |
| < 0.1 µM | 0.1 to 1 µM |  |  | CCOC(=O)c1nn(C)cc1-c1cnc2ccc(NC(=O)NC3CCCC3)nc2c1 [Compound 0215] |

| IC50 (human PI3Kα protein; [2]) | IC50 [1, 3] | IC50 (human PI3Kα protein; read-out: PI3Kα, IC50) | IC50 ([1]; read-out: ERK2, IC50) | Structure (SMILES) |
| --- | --- | --- | --- | --- |
| 0.1 to 1 µM | < 0.1 µM |  |  | O=C(NCCCCCc1ccccc1)Nc1ccc2ncc(-c3cn[nH]c3)cc2n1 [Compound 0096] |
| < 0.1 µM | < 0.1 µM |  |  | COc1ccccc1CCCCNC(=O)Nc1ccc2ncc(-c3cn[nH]c3)cc2n1 [Compound 0168] |
| < 0.1 µM | 1 to 10 µM |  |  | O=C(Nc1ccc2ncc(NC(=O)c3ccccc3)cc2n1)NC1CCCC1 [Compound 0134] |
| 0.1 to 1 µM | < 0.1 µM |  |  | O=C(Nc1ccc2ncc(-c3cn[nH]c3)cc2n1)N[C@H]1CCc2ccccc21 [Compound 0077] |
| 1 to 10 µM | < 0.1 µM |  |  | O=C(NCc1ccccn1)Nc1ccc2ncc(-c3cn[nH]c3)cc2n1 [Compound 0101] |
| 0.1 to 1 µM | 0.1 to 1 µM |  |  | COCC1(NC(=O)Nc2ccc3ncc(-c4cn[nH]c4)cc3n2)CCC1 [Compound 0196] |
| < 0.1 µM | < 0.1 µM |  |  | O=C(Nc1ccc2ncc(C3=CCOCC3)cc2n1)NC1CCCC1 [Compound 0205] |
| < 0.1 µM | 0.1 to 1 µM |  |  | O=C(Nc1ccc2ncc(-c3cn[nH]c3)cc2n1)N[C@H]1CCC[C@@H]1OCc1ccccc1 [Compound 0159] |
| 0.1 to 1 µM | 0.1 to 1 µM |  |  | O=C(NCc1ccncc1)Nc1ccc2ncc(-c3cn[nH]c3)cc2n1 [Compound 0103] |
| < 0.1 µM | > 10 µM |  |  | COc1ccc(C(=O)Nc2cnc3ccc(NC(=O)NC4CCCC4)nc3c2)cc1 [Compound 0135] |
| < 0.1 µM | 0.1 to 1 µM |  |  | O=C(Nc1ccc2ncc(Nc3cnccn3)cc2n1)NC1CCCC1 [Compound 0140] |
| < 0.1 µM | < 0.1 µM |  |  | COc1c(-c2cnn(C)c2)cnc2ccc(NC(=O)NC3CCCC3)nc12 [Compound 0235] |
| < 0.1 µM | < 0.1 µM |  |  | COc1cc(-c2cnc3ccc(NC(=O)NC4CCCC4)nc3c2)ccn1 [Compound 0022] |
| < 0.1 µM | < 0.1 µM |  |  | O=C(NCC1CCC1)Nc1ccc2ncc(-c3cn[nH]c3)cc2n1 [Compound 0188] |
| 0.1 to 1 µM | < 0.1 µM |  |  | COCCOc1cc(-c2cnc3ccc(NC(=O)NC4CCCC4)nc3c2)ccc1O [Compound 0021] |
| 0.1 to 1 µM | < 0.1 µM |  |  | CO[C@H]1CCC[C@@H]1NC(=O)Nc1ccc2ncc(-c3cn[nH]c3)cc2n1 [Compound 0194] |
| < 0.1 µM | < 0.1 µM | 0.01 µM | 0.007 µM | O=C(Nc1ccc2ncc(-c3cn[nH]c3)cc2n1)NC1CCCC1 [Compound 0137] |
| < 0.1 µM | 0.1 to 1 µM |  |  | CC(C)N1CCC(n2cc(-c3cnc4ccc(NC(=O)NC5CCCC5)nc4c3)cn2)CC1 [Compound 0231] |
| < 0.1 µM | < 0.1 µM |  |  | C[C@@H](NC(=O)Nc1ccc2ncc(-c3cnn(CCCN4CCOCC4)c3)cc2n1)C1CCCCC1 [Compound 0181] |
| 0.1 to 1 µM | < 0.1 µM |  |  | O=C(NCCCCc1ccc(F)cc1)Nc1ccc2ncc(-c3cn[nH]c3)cc2n1 [Compound 0172] |
| 0.1 to 1 µM | 0.1 to 1 µM |  |  | O=C(Nc1ccc2ncc(-c3cnn(CCCN4CCOCC4)c3)cc2n1)N[C@H]1CCN(Cc2ccccc2)C1 [Compound 0176] |
| < 0.1 µM | 0.1 to 1 µM |  |  | CC1(NC(=O)Nc2ccc3ncc(-c4cnn(CCCN5CCNCC5)c4)cc3n2)CCCC1 [Compound 0256] |
| < 0.1 µM | < 0.1 µM |  |  | COCCN(C)CCn1cc(-c2cnc3ccc(NC(=O)NC4CCCC4)nc3c2)cn1 [Compound 0037] |
| 1 to 10 µM | 1 to 10 µM |  |  | N#Cc1cnc2ccc(NC(=O)NC3CCCC3)nc2c1 [Compound 0129] |
| < 0.1 µM | < 0.1 µM | 0.011 µM | 0.007 µM | Cc1n[nH]cc1-c1cnc2ccc(NC(=O)NC3CCCC3)nc2c1 [Compound 0043] |
| < 0.1 µM | < 0.1 µM |  |  | O=C(Nc1ccc2ncc(-c3cnco3)cc2n1)NC1CCCC1 [Compound 0239] |
